# Earlier results in patent publication US6891077B2, “Fibrinogen bandages and arterial bleeding models and methods of making and using thereof” (priority 2001, dated 2005).
# System: coagulation and clot formation
# Conditions: incorporated in or on fibrinogen dressings or bandages
compound,measurement,value
NCCCCCC(=O)O [ε-amino caproic acid],Effect on coagulation and clot formation as compared to fibrinogen bandages alone,decreased coagulation and clot formation
